Where “and” joins values, the source holds several entries; their conditions need not be identical. Identical values can stand only once.
SMILES	melting point
CCNc1nc(Cl)nc(NCC)n1 [2-chloro-4,6-bis(ethylamino)-1,3,5-triazine]	228 °C
Nc1ccc([N+](=O)[O-])cc1Cl [2-chloro-4-nitroaniline]	108 °C
N#Cc1ccc([N+](=O)[O-])cc1Cl [2-chloro-4-nitrobenzonitrile]	80 °C
O=[N+]([O-])c1ccc(O)c(Cl)c1 [2-chloro-4-nitrophenol]	110 °C
Cc1ccc(Cl)c(O)c1 [2-chloro-5-methylphenol]	47 °C
Cc1cc([N+](=O)[O-])ccc1Cl [2-chloro-5-nitrotoluene]	43 °C
ClCc1ccccc1Cl [2-chlorobenzyl chloride]	-13 °C
CCC(C)Cl (stereo not drawn) [2-chlorobutane]	-141 °C
Clc1ncc[nH]1 [2-chloroimidazole]	166 °C
CCCC(C)Cl (stereo not drawn) [2-chloropentane]	-137 °C
Oc1ccccc1Cl [2-chlorophenol]	8 °C
CC(C)Cl [2-chloropropane]	-117 °C
N#Cc1ccccc1C=O [2-cyanobenzaldehyde]	104 °C
CCOCCO [2-ethoxyethanol]	-90 °C
CCOCCOC(C)=O [2-ethoxyethyl acetate]	-62 °C
C=CC(=O)OCC(CC)CCCC (stereo not drawn) [2-ethylhexyl acrylate]	-90 °C
CCc1ncc[nH]1 [2-ethylimidazole]	82 °C
CCc1ccc2ccccc2c1 [2-ethylnaphthalene]	-7.35 °C
CCCCCCCCCCCCCCC(C)O (stereo not drawn) [2-hexadecanol]	47 °C
CCCCC(C)=O [2-hexanone]	-56 °C
CC#CCCC [2-hexyne]	-90 °C
Cn1ccnc1I [2-iodo-1-methylimidazole]	81 °C
CC(C)(C)I [2-iodo-2-methylpropane]	-38 °C

SMILES	melting point
CCC(C)I (stereo not drawn) [2-iodobutane]	-104 °C
Oc1ccccc1I [2-iodophenol] [listing 1 of 2 here]	43 °C and 38.5 °C
Oc1ccccc1I [2-iodophenol] [listing 2 of 2 here]	40 °C
Cn1ccnc1S [2-mercapto-1-methylimidazole]	146 °C
Sc1nc2ccccc2[nH]1 [2-mercaptobenzimidazole]	303 °C
[O-][n+]1ccccc1S [2-mercaptopyridine n-oxide]	71 °C
COCCOCCOC [2-methoxyethyl_ether]	-64 °C
COc1ccccc1CC#N [2-methoxyphenylacetonitrile]	68 °C
CC1=NC2=CCC=CC2=C1C#N [2-methyl-1H-indole-3-carbonitrile]	213 °C
CCC(C)(C)O [2-methyl-2-butanol]	-8 °C
CC=C(C)C [2-methyl-2-butene]	-134 °C
CCCCCC(C)(C)O [2-methyl-2-heptanol]	-50 °C
CCCC(C)(C)O [2-methyl-2-pentanol]	-102 °C
CC(C)(C)O [2-methyl-2-propanol]	26 °C
CC1C(=O)CCCC1=O [2-methylcyclohexane-1,3-dione]	206 °C
CCCCCCC(C)C [2-methyloctane]	-80 °C
CC1CCCCN1 (stereo not drawn) [2-methylpiperidine]	-4 °C
CCCCCCCCC(CCCCCC)C(=O)O (stereo not drawn) [2-n-hexyldecanoic acid]	10 °C
Cc1cccc(C)c1[N+](=O)[O-] [2-nitro-1,3-dimethylbenzene]	16 °C
Cc1ccccc1[N+](=O)[O-] [2-nitrotoluene]	-4 °C
CCCCCCCC(C)=O [2-nonanone] [listing 1 of 2 here]	-15 °C
CCCCCCCC(C)=O [2-nonanone] [listing 2 of 2 here]	-8 °C
OCCOc1ccccc1 [2-phenoxyethanol]	12 °C

The next lines start with the values.

melting point	SMILES
48 °C	CC#CCOS(=O)(=O)c1ccc(C)cc1 [2-butynyl p-toluenesulfonate]
164 °C	O=C(O)c1ccccc1OP(=O)(O)O [2-carboxyphenyl phosphate]
88 °C	O=C(CCl)Nc1ccccc1[N+](=O)[O-] [2-chloro-2'-nitroacetanilide]
145 °C	N#Cc1cc(-c2ccccc2)cnc1Cl [2-chloro-3-cyano-5-phenylpyridine]
111 °C	OB(O)c1ccc(C(F)(F)F)cc1Cl [2-chloro-4-(trifluoromethyl)benzeneboronic acid]
80 °C	CN(C)c1ccc(C=O)c(Cl)c1 [2-chloro-4-dimethylaminobenzaldehyde]
22 °C	Oc1ccc(F)cc1Cl [2-chloro-4-fluorophenol]
202 °C	COc1ccc(B(O)O)c(Cl)c1 [2-chloro-4-methoxybenzeneboronic acid]
42 °C	COc1ccc(CC#N)c(Cl)c1 [2-chloro-4-methoxyphenylacetonitrile]
142 °C	O=C(O)c1ccc([N+](=O)[O-])cc1Cl [2-chloro-4-nitrobenzoic acid]
154 °C	O=[N+]([O-])c1cc[n+]([O-])c(Cl)c1 [2-chloro-4-nitropyridine n-oxide]
9 °C	Nc1cc(C(F)(F)F)ccc1Cl [2-chloro-5-(trifluoromethyl)aniline]
32 °C	Cc1ccc(Cl)c(N)c1 [2-chloro-5-methylaniline]
119 °C	Nc1cc([N+](=O)[O-])ccc1Cl [2-chloro-5-nitroaniline]
167 °C	O=C(O)c1cc([N+](=O)[O-])ccc1Cl [2-chloro-5-nitrobenzoic acid]
29 °C	FC(F)(F)c1cccc(Cl)n1 [2-chloro-6-(trifluoromethyl)pyridine]
130 °C	Oc1cccc(Cl)n1 [2-chloro-6-hydroxypyridine]
164 °C	O=C(O)c1c(Cl)cccc1[N+](=O)[O-] [2-chloro-6-nitrobenzoic acid]
36 °C	Cc1c(Cl)cccc1[N+](=O)[O-] [2-chloro-6-nitrotoluene]
183 °C	Clc1nc2ccccc2[nH]1 [2-chlorobenzimidazole]
140 °C	O=C(O)c1ccccc1Cl [2-chlorobenzoic acid]

melting point	SMILES
46 °C	O=C(c1ccccc1)c1ccccc1Cl [2-chlorobenzophenone]
56 °C	N#CCC(=O)c1ccccc1Cl [2-chlorobenzoylacetonitrile]
70 °C	OCc1ccccc1Cl [2-chlorobenzyl alcohol]
96 °C	O=C(O)Cc1ccccc1Cl [2-chlorophenylacetic acid]
69 °C	[O-][n+]1ccccc1Cl [2-chloropyridine n-oxide]
52 °C	O=Cc1cccnc1Cl [2-chloropyridine-3-carboxaldehyde]
-46 °C	Clc1ccccn1 [2-chloropyridine]
65 °C	CCOC(=O)N1c2ccccc2C=CC1OCC (stereo not drawn) [2-ethoxy-1-ethoxycarbonyl-1,2-dihydroquinoline]
109 °C	CCc1ccc2c(c1)C(=O)c1ccccc1C2=O [2-ethylanthraquinone]
168 °C	O=C(O)c1ccc(C(F)(F)F)cc1F [2-fluoro-4-(trifluoromethyl)benzoic acid]
71 °C	OCc1ccc(F)c(B(O)O)c1 [2-fluoro-5-(hydroxymethyl)benzeneboronic acid]
71 °C	N#Cc1cc([N+](=O)[O-])ccc1F [2-fluoro-5-nitrobenzonitrile]
125 °C	COc1cccc(F)c1B(O)O [2-fluoro-6-methoxybenzeneboronic acid]
210 °C	N[C@H](Cc1ccccc1F)C(=O)O [2-fluoro-D-phenylalanine]
118 °C	O=Cc1ccccc1B(O)O [2-formylbenzeneboronic acid]
80 °C	NNC(=O)c1ccco1 [2-furohydrazide]
185 °C	OB(O)c1ccccc1O [2-hydroxybenzeneboronic acid]
85 °C	OCc1ccccc1O [2-hydroxybenzyl alcohol]
198 °C	O=c1ccc2ccccc2[nH]1 [2-hydroxyquinoline]
92 °C	O=C(O)CC1Cc2ccccc2C1 [2-indanylacetic acid]
16 °C	CC(C)c1ccccc1O [2-isopropylphenol]

melting point	SMILES
180 °C	Sc1nc2ccccc2s1 [2-mercaptobenzothiazole]
84 °C	COc1ccc2ccccc2c1C=O [2-methoxy-1-naphthaldehyde]
6 °C	COc1cc(C)ccc1O [2-methoxy-4-methylphenol]
104 °C	COc1ccccc1B(O)O [2-methoxybenzeneboronic acid]
101 °C	COc1ccccc1C(=O)O [2-methoxybenzoic acid]
59 °C	COc1ccccc1OC(=O)c1ccccc1 [2-methoxyphenyl benzoate]
106 °C	CC1=CC(=O)c2ccccc2C1=O [2-methyl-1,4-naphthoquinone]
48 °C	Cc1ccc(-c2ccccc2)s1 [2-methyl-5-phenylthiophene]
184 °C	O=C(O)c1ccc2ccccc2c1 [2-naphthoic acid]
123 °C and 122 °C	Oc1ccc2ccccc2c1 [2-naphthol] [listing 1 of 2 here]
122 °C	Oc1ccc2ccccc2c1 [2-naphthol] [listing 2 of 2 here]
83 °C	N#CCc1ccc2ccccc2c1 [2-naphthylacetonitrile]
100 °C	O=[N+]([O-])c1ccccc1C=NO [2-nitrobenzaldoxime]
176 °C	NC(=O)c1ccccc1[N+](=O)[O-] [2-nitrobenzamide]
109 °C	N#Cc1ccccc1[N+](=O)[O-] [2-nitrobenzonitrile]
83 °C	N#CCc1ccccc1[N+](=O)[O-] [2-nitrophenylacetonitrile]
83 °C	O=[N+]([O-])c1c(O)cccc1O [2-nitroresorcinol]
47 °C	Nc1ccccc1Oc1ccccc1 [2-phenoxyaniline]
33 °C	BrCCOc1ccccc1 [2-phenoxyethyl bromide]
-23 °C	C=C(C)c1ccccc1 [2-phenyl-1-propene]
